# From US20260265256A1 (IMPACT THERAPEUTICS (SHANGHAI), INC., priority 2023, published 2026)
# Tested on: MDA-MB-436 cells
# Assay: Growth inhibition assay against BRCA mutant human breast cancer MDA-MB-436 cell line (CCK-8, 7 days)
# Type: cell-based
# Settings: 168 h, MDA-MB-436, 7 days, read-out: IC50 (nM), proliferation of human breast cancer cells MDA-MB-436
# Experimental: The cells were cultured in complete medium (DMEM medium+10% FBS+Insulin+glutathione). When the confluence reached about 80%, cells were digested and gently dispensed from the bottom of the dish with a 1 mL pipette. Cell suspension was collected and centrifuged at 500 rpm for 3 min. The supernatant was discarded, and the cell pellet were re-suspended in complete medium. The cells were seeded into a culture dish at an appropriate proportion, and then cultured in a 5% CO2 incubator at 37° C. The assay was carried out when the cells were in optimum condition and the confluence was reached 80%. Cells in the logarithmic growth phase were taken to centrifugate, and the culture supernatant was removed. The cells were resuspended in refresh complete medium and counted. The resuspended cells were seeded at 3000/well in a 96-well plate and incubated at 37° C., 5% CO2 incubator overnight. […] The solution was mixed by oscillation. 0.10% DMSO was used as the control.
# The next day, the 96-well plate inoculated with cells was taken out from the incubator, and the culture supernatant was removed. Then fresh medium of 195 uL/well and 5 μL/well of 40× test compound solution as mentioned above were added into the 96 well plate, respectively. Finally, the plate was incubated for 7 days in a 37° C. 5% CO2 incubator. The medium containing compound was changed on the fourth day. After 7 days, 20 μL of CCK-8 was added to each well and shaken gently, then was cultured for 4 hours. The plate was shaken for 5 min after incubation, the absorbance values of 450 nm or 650 nm wavelengths were recorded respectively (OD=absorbance value of 450 nm−absorbance value of 650 nm) by using the multifunction readout instrument.
# Data were analyzed by software GraphPad Prism 6.0. The inhibitory activity of compounds on cell proliferation was plotted using cell survival rate against the compound concentration as coordinates. Cell survival rate %=(ODcompound−ODbackground)/(ODDMSO−ODbackground)×100.
# Table 2 summarizes the inhibitory effect data (IC50) of the compounds on the proliferation of human breast cancer cells MDA-MB-436.
row,Structure (SMILES),IC50
1,"CCNC(=O)c1ccc(-n2cc3c(n2)CN(Cc2ccc4c([nH]c(=O)c5c(C)cnn54)c2F)C3)c(F)n1 [Example 7, N-ethyl-6-fluoro-5-(5-((6-fluoro-3-methyl-4-oxo-4,5-dihydropyrazolo[1,5-a]quinoxalin-7-yl)methyl)-5,6-dihydropyrrolo[3,4-c]pyrazol-2(4H)-yl)picolinamide]",27.2 nM
2,"CNC(=O)c1ccc(-n2cc3c(n2)CN(Cc2ccc4c([nH]c(=O)c5c(F)cnn54)c2F)C3)c(O)n1 [Example 17, 5-(5-((3,6-difluoro-4-oxo-4,5-dihydropyrazolo[1,5-a]quinoxalin-7-yl)methyl)-5,6-dihydropyrrolo[3,4-c]pyrazol-2(4H)-yl)-6-hydroxy-N-methylpicolinamide]",> 100 nM
3,"O=C(NC1CC1)c1ccc(-n2cc3c(n2)CN(Cc2ccc4c([nH]c(=O)c5c(F)cnn54)c2F)C3)c(F)n1 [Example 21, N-cyclopropyl-5-(5-((3,6-difluoro-4-oxo-4,5-dihydropyrazolo[1,5-a]quinoxalin-7-yl)methyl)-5,6-dihydropyrrolo[3,4-c]pyrazol-2(4H)-yl)-6-fluoropicolinamide]",2.14 nM
4,"CNC(=O)c1ccc(-n2nc3c(c2C)CN(Cc2ccc4c([nH]c(=O)c5c(F)cnn54)c2F)C3)cn1 [Example 40, 5-(5-((3,6-difluoro-4-oxo-4,5-dihydropyrazolo[1,5-a]quinoxalin-7-yl)methyl)-3-methyl-5,6-dihydropyrrolo[3,4-c]pyrazol-2(4H)-yl)-N-methylpicolinamide]",> 100 nM
5,"CNC(=O)c1ccc(-c2nc3c(n2C)CN(Cc2ccc4c([nH]c(=O)c5c(F)cnn54)c2F)C3)cn1 [Example 44, 5-(5-((3,6-difluoro-4-oxo-4,5-dihydropyrazolo[1,5-a]quinoxalin-7-yl)methyl)-1-methyl-1,4,5,6-tetrahydropyrrolo[3,4-d]imidazol-2-yl)-N-methylpicolinamide]",> 100 nM
6,"CNC(=O)c1ccc(-c2cc3c(o2)CN(Cc2ccc4c([nH]c(=O)c5c(F)cnn54)c2F)C3)cn1 [Example 46, 5-(5-((3,6-difluoro-4-oxo-4,5-dihydropyrazolo[1,5-a]quinoxalin-7-yl)methyl)-5,6-dihydro-4H-furo[2,3-c]pyrrol-2-yl)-N-methylpicolinamide]",2.16 nM
7,"CNC(=O)c1ccc(-c2cc3c(s2)CN(Cc2ccc4c([nH]c(=O)c5c(F)cnn54)c2F)C3)cn1 [Example 47, 5-(5-((3,6-difluoro-4-oxo-4,5-dihydropyrazolo[1,5-a]quinoxalin-7-yl)methyl)-5,6-dihydro-4H-thieno[2,3-c]pyrrol-2-yl)-N-methylpicolinamide]",14.4 nM
8,"CNC(=O)c1ccc(N2CC3CN(Cc4ccc5c([nH]c(=O)c6c(F)cnn65)c4F)CC3C2)c(F)n1 (stereo not drawn) [Example 61, 5-(5-((3,6-difluoro-4-oxo-4,5-dihydropyrazolo[1,5-a]quinoxalin-7-yl)methyl)hexahydropyrrolo[3,4-c]pyrrol-2(1H)-yl)-6-fluoro-N-methylpicolinamide]",> 100 nM
9,"CNC(=O)c1ccc(N2CC3CN(Cc4ccc5c([nH]c(=O)c6c(C)cnn65)c4F)CC3C2)c(F)n1 (stereo not drawn) [Example 64, 6-fluoro-5-(5-((6-fluoro-3-methyl-4-oxo-4,5-dihydropyrazolo[1,5-a]quinoxalin-7-yl)methyl)hexahydropyrrolo[3,4-c]pyrrol-2(1H)-yl)-N-methylpicolinamide]",> 100 nM

# The remaining lines, values ahead:
row,IC50,Structure (SMILES)
1,57 nM,"CNC(=O)c1ccc(-n2cc3c(n2)CN(Cc2ccc4c([nH]c(=O)c5c(C)cnn54)c2F)C3)c(C)n1 [Example 2, 5-(5-((6-fluoro-3-methyl-4-oxo-4,5-dihydropyrazolo[1,5-a]quinoxalin-7-yl)methyl)-5,6-dihydropyrrolo[3,4-c]pyrazol-2(4H)-yl)-N,6-dimethylpicolinamide]"
2,9.71 nM,"CNC(=O)c1ccc(-n2cc3c(n2)CN(Cc2ccc4c([nH]c(=O)c5c(C)cnn54)c2F)C3)c(F)n1 [Example 3, 5-(5-((6-fluoro-3-methyl-4-oxo-4,5-dihydropyrazolo[1,5-a]quinoxalin-7-yl)methyl)-5,6-dihydropyrrolo[3,4-c]pyrazol-2(4H)-yl)-6-fluoro-N-methylpicolinamide]"
3,91 nM,"CNC(=O)c1ccc(-n2cc3c(n2)CN(Cc2ccc4c([nH]c(=O)c5c(C)cnn54)c2F)C3)c(Cl)n1 [Example 4, 5-(5-((6-fluoro-3-methyl-4-oxo-4,5-dihydropyrazolo[1,5-a]quinoxalin-7-yl)methyl)-5,6-dihydropyrrolo[3,4-c]pyrazol-2(4H)-yl)-6-chloro-N-methylpicolinamide]"
4,> 100 nM,"CNC(=O)c1ccc(-n2cc3c(n2)CN(Cc2ccc4c([nH]c(=O)c5c(C)cnn54)c2F)C3)c(O)n1 [Example 5, 5-(5-((6-fluoro-3-methyl-4-oxo-4,5-dihydropyrazolo[1,5-a]quinoxalin-7-yl)methyl)-5,6-dihydropyrrolo[3,4-c]pyrazol-2(4H)-yl)-6-hydroxy-N-methylpicolinamide]"
5,> 100 nM,"CNC(=O)c1ccc(-n2cc3c(n2)CCN(Cc2ccc4c([nH]c(=O)c5c(C)cnn54)c2F)C3)cn1 [Example 10-1, 5-(5-((6-fluoro-3-methyl-4-oxo-4,5-dihydropyrazolo[1,5-a]quinoxalin-7-yl)methyl)-4,5,6,7-tetrahydro-2H-pyrazolo[4,3-c]pyridin-2-yl)-N-methylpicolinamide]"
6,> 100 nM,"CNC(=O)c1ccc(-n2ncc3c2CCN(Cc2ccc4c([nH]c(=O)c5c(C)cnn54)c2F)C3)cn1 [Example 10-2, 5-(5-((6-fluoro-3-methyl-4-oxo-4,5-dihydropyrazolo[1,5-a]quinoxalin-7-yl)methyl)-4,5,6,7-tetrahydro-1H-pyrazolo[4,3-c]pyridin-1-yl)-N-methylpicolinamide]"
7,0.65 nM,"O=C(NC1CC1)c1ccc(-n2cc3c(n2)CN(Cc2ccc4c([nH]c(=O)c5c(F)cnn54)c2F)C3)cn1 [Example 20, 5-(5-((3,6-difluoro-4-oxo-4,5-dihydropyrazolo[1,5-a]quinoxalin-7-yl)methyl)-5,6-dihydropyrrolo[3,4-c]pyrazol-2(4H)-yl)-N-cyclopropylpicolinamide]"
8,> 100 nM,"CNC(=O)c1ccc(-n2cc3c(n2)CCN(Cc2ccc4c([nH]c(=O)c5c(F)cnn54)c2F)C3)cn1 [Example 22, 5-(5-((3,6-difluoro-4-oxo-4,5-dihydropyrazolo[1,5-a]quinoxalin-7-yl)methyl)-4,5,6,7-tetrahydro-2H-pyrazolo[4,3-c]pyridin-2-yl)-N-methylpicolinamide]"
9,> 100 nM,"CNC(=O)c1ccc(-n2cc3c(n2)CCN(Cc2ccc4c([nH]c(=O)c5c(F)cnn54)c2F)C3)c(C)n1 [Example 23, 5-(5-((3,6-difluoro-4-oxo-4,5-dihydropyrazolo[1,5-a]quinoxalin-7-yl)methyl)-4,5,6,7-tetrahydro-2H-pyrazolo[4,3-c]pyridin-2-yl)-N,6-dimethylpicolinamide]"
10,> 100 nM,"CNC(=O)c1ccc(-n2cc3c(n2)CCN(Cc2ccc4c([nH]c(=O)c5c(F)cnn54)c2F)C3)c(F)n1 [Example 24, 5-(5-((3,6-difluoro-4-oxo-4,5-dihydropyrazolo[1,5-a]quinoxalin-7-yl)methyl)-4,5,6,7-tetrahydro-2H-pyrazolo[4,3-c]pyridin-2-yl)-6-fluoro-N-methylpicolinamide]"
11,18.4 nM,"CNC(=O)c1ccc(-c2nc3c(o2)CN(Cc2ccc4c([nH]c(=O)c5c(C)cnn54)c2F)C3)cn1 [Example 32, 5-(5-((6-fluoro-3-methyl-4-oxo-4,5-dihydropyrazolo[1,5-a]quinoxalin-7-yl)methyl)-5,6-dihydro-4H-pyrrolo[3,4-d]oxazol-2-yl)-N-methylpicolinamide]"
12,> 100 nM,"CNC(=O)c1ccc(-c2nc3c(s2)CN(Cc2ccc4c([nH]c(=O)c5c(C)cnn54)c2F)C3)cn1 [Example 33, 5-(5-((6-fluoro-3-methyl-4-oxo-4,5-dihydropyrazolo[1,5-a]quinoxalin-7-yl)methyl)-5,6-dihydro-4H-pyrrolo[3,4-d]thiazol-2-yl)-N-methylpicolinamide]"

# Target: recombinant poly(ADP-ribose) polymerase 2 (PARP2) (Homo sapiens, UniProt Q9UGN5)
# Assay: PARP2 chemiluminescent assay
# Type: biochemical
# Settings: PARP2 enzyme activity, chemiluminescence, 40 ng enzyme/well
# Experimental: The solution of recombinant poly(ADP-ribose) polymerase 1 and 2 (PARP1 and PARP2) (40 ng enzyme/well) and the compounds to be tested were mixed, respectively. The solutions were added to a 96-well plate coated with histone mixture, incubated at room temperature for 1 h, then 50 μL 0.3 ng/mL Streptavidin-HRP was added to each well. The plates were incubated for 30 minutes at room temperature. Finally, the plates were treated with streptavidin-HRP followed by addition of the ELISA ECL substrate to produce chemiluminescence that can be measured using a chemiluminescence reader. Inhibition of the tested compound to PARP1/2 enzyme activity was calculated according to the following formula. [formula] IC50 value is obtained by fitting the s-shaped dose response curve equation by using XL Fit software.
# Sequence of recombinant poly(ADP-ribose) polymerase 2 (PARP2) (Q9UGN5 whole entry): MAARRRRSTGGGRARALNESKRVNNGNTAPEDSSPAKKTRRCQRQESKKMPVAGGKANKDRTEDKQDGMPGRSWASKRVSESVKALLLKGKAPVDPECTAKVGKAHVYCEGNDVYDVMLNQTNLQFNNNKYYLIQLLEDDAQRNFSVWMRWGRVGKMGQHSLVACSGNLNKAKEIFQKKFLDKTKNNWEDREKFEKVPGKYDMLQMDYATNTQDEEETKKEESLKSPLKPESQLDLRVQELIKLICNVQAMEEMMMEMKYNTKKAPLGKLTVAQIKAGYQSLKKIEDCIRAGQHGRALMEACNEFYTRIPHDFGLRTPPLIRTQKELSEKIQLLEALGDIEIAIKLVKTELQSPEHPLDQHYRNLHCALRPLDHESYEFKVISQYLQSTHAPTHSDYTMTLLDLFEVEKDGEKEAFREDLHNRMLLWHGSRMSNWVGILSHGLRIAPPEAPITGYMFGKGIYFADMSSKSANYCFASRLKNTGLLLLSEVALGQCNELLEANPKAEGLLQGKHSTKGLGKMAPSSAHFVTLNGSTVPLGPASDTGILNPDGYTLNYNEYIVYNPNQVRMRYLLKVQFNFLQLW
row,IC50,Structure (SMILES)
1,> 10000 nM,"CNC(=O)c1ccc(-n2cc3c(n2)CCN(Cc2ccc4c([nH]c(=O)c5c(C)cnn54)c2F)C3)cn1 [Example 10-1, 5-(5-((6-fluoro-3-methyl-4-oxo-4,5-dihydropyrazolo[1,5-a]quinoxalin-7-yl)methyl)-4,5,6,7-tetrahydro-2H-pyrazolo[4,3-c]pyridin-2-yl)-N-methylpicolinamide]"
2,> 10000 nM,"CNC(=O)c1ccc(-n2ncc3c2CCN(Cc2ccc4c([nH]c(=O)c5c(C)cnn54)c2F)C3)cn1 [Example 10-2, 5-(5-((6-fluoro-3-methyl-4-oxo-4,5-dihydropyrazolo[1,5-a]quinoxalin-7-yl)methyl)-4,5,6,7-tetrahydro-1H-pyrazolo[4,3-c]pyridin-1-yl)-N-methylpicolinamide]"
3,> 10000 nM,"O=C(NC1CC1)c1ccc(-n2cc3c(n2)CN(Cc2ccc4c([nH]c(=O)c5c(F)cnn54)c2F)C3)c(F)n1 [Example 21, N-cyclopropyl-5-(5-((3,6-difluoro-4-oxo-4,5-dihydropyrazolo[1,5-a]quinoxalin-7-yl)methyl)-5,6-dihydropyrrolo[3,4-c]pyrazol-2(4H)-yl)-6-fluoropicolinamide]"
